“And” between values parts separate entries of the source, which are not always exact repeats. Equal values may be shown once.
Columns and labels:
Format in all cases: cell-based, human
LPS-stimulated PBM [1] = assay: Intracellular oxidative burst, DCFH oxidation assay, PBM; conditions: for oxidative burst in LPS-stimulated PBM with IFN-γ: preincubated 24 hour with cytokine 20 ng/ml in the presence of IFN-γ 200 U/ml, LPS 1 μg/ml 20 hour; for LPS-stimulated oxidative burst in PBM: preincubation 24 hour with cytokine 20 ng/ml, then LPS 1 μg/ml 20 hour, without IFN-γ; for Oxidative burst (nmoles DCF/mg protein): LPS 1 μg/ml 20 h
Method: (§1) Intracellular oxidative capacity was assessed essentially as described by Bass et al., J. Immunol., 130:1910-1917 (1983) (incorporated herein by reference) as described infra.
(§2) Cells (0.2×10^6) were preincubated for 24 hour with IL-9 or IL-4 (20 ng/ml) in the presence of IFN-γ (200 U/ml) before stimulation for 20 hour with LPS (1 μg/ml). The intracellular oxidative capacity was measured through the DCFH oxidation assay as describe herein. FIG. 3 depicts the effect of IFN-γ on the inhibition mediated by IL-9 and IL-4 on the oxidative burst in LPS-stimulated PBM (A) and AM (B).
(§3) Table 1. Specific blockade of the IL-9 inhibitory effect on oxidative burst in LPS-15 stimulated PBM and AM by anti-hIL-9R mAb. Cells (0.2×10^6) were preincubated with neutralizing mAb against hIL-9R (AH9R7, 10 μg/ml), or with control mIgG2b (10 μg/ml), 1 hour before incubation with IL-9 (20 ng/ml) for 24 hour without removing mAb, and stimulated by LPS (1 μg/ml) for 20 h. Intracellular oxidative capacity was evaluated by the DCFH oxidation assay. Data are means±SEM obtained from three experiments, triplicate conditions being performed in each experiment. *P<0.001 compared with cells preincubated with IL-9 (with or without control mIgG2b).
Cells (0.2×10^6) were preincubated with neutralizing mAb, either against TGF-β1 (30 μg/ml) or against IL-10Rβ (30 μg/ml) or with control mIgG1 (30 μg/ml), 2 hour before incubation with IL-9 (20 ng/ml) for 24 hour without removing the mAb, and stimulated with LPS (1 μg/ml) for 20 h. Intracellular oxidative capacity was evaluated by the DCFH oxidation assay.
(§4) Intracellular oxidative capacity was assessed as described by Bass et al., (Bass et al., J. Immunol. 130:1910-1917 (1983)). Briefly, the PBM and AM samples were distributed in 96-well plates with flat bottoms (Falcon) to provide 0.2×10^6cells/well. The cells were preincubated for 24 hour at 37° C., 5% CO2 with cytokines (200 u/ml for IFN-y, 20 ng/ml for IL-9 and 20 ng/ml; for IL-4) in cRPMI before being stimulated for 20 hours with LPS (1 μg/ml) without removing the cytokines. At the end of incubation with cytokines and/or LPS, cells were loaded for 15 min with 15 μM DCFH-DA in cRPMI which, after passive penetration into cells, is hydrolyzed into nonfluorescent polar DCFH and trapped inside the cells. DCFH is then oxidized into highly fluorescent DCF according to the intracellular amount of hydrogen peroxide (H2O2) produced by the respiratory burst. After three washings with phosphate-buffered saline (PBS, pH 7.4), cells were lysed in 0.1% v/v Triton X100 (Sigma) in PBS, and fluorescence was quantified in a computerized microplate spectrofluorimeter (Packard Instruments, Downers Grove, Ill., USA) at 485 nm excitation/530 nm emission wavelengths. DCF concentrations were deduced from a standard curve of known concentrations of fluorescent DCF (ranging from 0.08 to 10 μM in lysis buffer) Results were corrected for total protein concentration determined in cell lysates by the bicinchoninic acid-based method (Pierce, Rockford, Ill., USA), and were expressed as nmoles DCF/mg cell protein.

LPS-stimulated AM = assay: Intracellular oxidative burst, DCFH oxidation assay, AM; conditions: for oxidative burst in LPS-stimulated AM with IFN-γ: preincubated 24 hour with cytokine 20 ng/ml in the presence of IFN-γ 200 U/ml, LPS 1 μg/ml 20 hour; for LPS-stimulated oxidative burst in AM: preincubation 24 hour with cytokine 20 ng/ml, then LPS 1 μg/ml 20 hour, without IFN-γ
Method: as §1, §2, §3, §4

LPS-stimulated PBM [2] = assay: IL-8 release by ELISA, PBM; conditions: for effect on IL-8 release by LPS-stimulated PBM: preincubated 24 hour, LPS 20 hour
Method: PBM and AM obtained as described infra (1×10^6 PBM, 0.5×10^6 AM) were preincubated for 24 hour with cytokines, IL-4, IL-9 (20 ng/ml) and IFN-γ (200 U/ml) before the stimulation by LPS (1 μg/ml) for 20 h. Supernatants were harvested and frozen at −20° C. until cytokine titration. TNF-α release was determined in supernatants by a cytotoxic bioassay using WEHI 164 clone 13 target cells (Espevik and Nissen-Meyer, J. Immunol. Methods, 95:99-105 (1986) (incorporated herein by reference)), while IL-8 was quantitated in the same supernatants by ELISA. FIG. 5 depicts the effects of IL-9, IL-4, and IFN-γ on the release of TNFα (A) and IL-8 (B) by LPS-stimulated PBM and AM. Data are means±SEM (n=3). *P<0.001 compared with unstimulated cells; **P<0.05 compared with cells preincubated with medium.
Cells (1×10^6 PBM or 0.5×10^6 AM/well) were distributed in 24-well plates (Falcon), preincubated in cRPMI for 24 hours at 37° C., 5% CO2 with cytokines (IL-9, IL-4 (20 ng/ml) and IFN-γ (200 U/ml)) and stimulated for 20 hours with 1 μg/ml LPS without removing cytokines. Supernatants were harvested and frozen at −20° C. until cytokine titration. Release of TNF-α was quantified by a cytotoxicity bioassay using WEHI 164 cells clone 13, as previously described (Espevik and Nissen-Meyer, J. Immunol. Methods, 95:99-105 (1986) incorporated herein by reference), using rhTNF-α from Boehringer as a standard. IL-8, IL-10 and TGF-β1 concentrations were determined by ELISA. A kit from CLB (Amsterdam, The Netherlands) was used for IL-10 quantitation, following the manufacturer's protocol. A kit from Biosource allowed to determine TGF-β1 after the release from its latent complexes by a treatment of supernatants with ethanol acid (‘acid-treated supernatants’); TGF-P 1 was also assessed in crude supernatants (‘untreated supernatants’). […] The reaction was then developed in 0.03% v/v H2O2 substrate and 0.42 mM 3,3′,5,5′-tetramethylbenzidine as chromogen in 100 mM sodium acetate/citric acid buffer (pH 4.9), stopped with 2 M H2SO4, and read in a plate spectrometer at 450 nm. […]

[3] = preincubation 24 hour, LPS 20 hour

Molecule | oxidative burst in LPS-stimulated PBM with IFN-γ (LPS-stimulated PBM [1]) | LPS-stimulated oxidative burst in PBM (LPS-stimulated PBM [1]) | oxidative burst in LPS-stimulated AM with IFN-γ (LPS-stimulated AM) | LPS-stimulated oxidative burst in AM (LPS-stimulated AM) | IL-8 release by LPS-stimulated PBM (LPS-stimulated PBM [2]; preincubated 24 hour with cytokine or medium, LPS 1 μg/ml 20 hour, without LPS 10.0±2.4) | Oxidative burst (nmoles DCF/mg protein) (LPS-stimulated PBM [1]; Table 1, PBM, mAb 10 μg/ml 1 hour before IL-9 20 ng/ml 24 hour, means±SEM, medium 10.1 ± 0.4) | Oxidative burst (nmoles DCF/mg protein) (LPS-stimulated PBM [1]; Table 3, PBM, mAb 30 μg/ml 2 hour before IL-9 20 ng/ml 24 hour, means±SD, Medium 10.3 ± 0.2) | Oxidative burst (nmoles DCF/mg protein) (LPS-stimulated AM; Table 1, AM, mAb 10 μg/ml 1 hour before IL-9 20 ng/ml 24 hour, LPS 1 μg/ml 20 h, means±SEM, medium 5.8 ± 0.6) | effect on IL-8 release by LPS-stimulated PBM (LPS-stimulated PBM [2]) | effect on LPS-stimulated oxidative burst in PBM (LPS-stimulated PBM [1]; [3]) | effect on LPS-stimulated oxidative burst in AM (LPS-stimulated AM; [3])
IL-4: Th2 cytokine interleukin-4 used as comparator, 20 ng/ml | 19.6±2.2 nmoles DCF/mg protein | 9.4±0.6 nmoles DCF/mg protein | 13.8±1.3 nmoles DCF/mg protein | 6.1±0.4 nmoles DCF/mg protein | 20.1 ± 2.1 ng/mL | – | – | – | – | – | –
IL-9: Human IL-9 purified from SF9 insect cell cultures infected with recombinant baculovirus | 10.5±2.1 nmoles DCF/mg protein | 10.7±0.5 nmoles DCF/mg protein | 6.6±1.2 nmoles DCF/mg protein | 6.5±0.5 nmoles DCF/mg protein and 6.5±0.6 nmoles DCF/mg protein | – | 10.7 ± 0.5 nmoles DCF/mg protein | 10.8 ± 0.6 nmoles DCF/mg protein | 6.5 ± 0.5 nmoles DCF/mg protein | no significant modulation | – | –
IFN-γ: Interferon gamma, primes mononuclear phagocytes, 200 U/ml (protein, UniProt P01579 24-161, looked up) Interferon gamma: QDPYVKEAENLKKYFNAGHSDVADNGTLFLGILKNWKEESDRKIMQSQIVSFYFKLFKNFKDDQSIQKSVETIKEDMNVKFFNSNKKKRDDFEKLTNYSVTDLNVQRKAIHELIQVMAELSPAAKTGKRKRSQMLFRG | – | – | – | – | – | – | – | – | no significant modulation | slightly increased | slightly increased

From patent US20030091533A1, “Regulation of mononuclear phagocyte stimulation” (priority 2001, published 2003)
